From US20240293392A1, “INHIBITOR COMPOUNDS” (NeoPhore Limited, priority 2021, published 2024)
pIC50: −log10 of the molar value. Read-outs that look alike come from different tables or passages of the source.

How the values were obtained:
[1] = molecular target: T1, recombinant N-terminal MLH1 (residues 15-340) (Homo sapiens, UniProt P40692); assay: Fluorescence Polarisation Assay for MLH1; format: binding; details: fluorescence polarisation probe displacement; 100 nM N-terminal MLH1, 5 nM probe compound
T1 construct: recombinant N-terminal MLH1 (residues 15-340)
T1 sequence (P40692 15-340): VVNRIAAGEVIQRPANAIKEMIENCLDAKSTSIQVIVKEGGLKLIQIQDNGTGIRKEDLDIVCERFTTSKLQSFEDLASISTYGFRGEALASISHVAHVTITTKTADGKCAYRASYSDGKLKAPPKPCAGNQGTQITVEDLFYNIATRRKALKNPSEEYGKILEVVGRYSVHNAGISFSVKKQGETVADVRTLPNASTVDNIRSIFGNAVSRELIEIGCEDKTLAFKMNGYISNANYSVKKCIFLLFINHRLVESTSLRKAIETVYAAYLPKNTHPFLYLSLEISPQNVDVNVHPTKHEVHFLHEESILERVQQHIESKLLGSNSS
Description: Fluorescence Polarisation Assay for MLH1
Test compounds, as 10 mM DMSO stocks, were dispensed into a 384-well Low Flange Black Flat Bottom Polystyrene Non-binding Surface plate (Corning®, item number 3575) using a Labcyte Echo acoustic liquid handler. Test compounds were added to wells in columns 1-22 whilst DMSO was added to wells in columns 23 and 24 in order to normalise the plate. 20 μL of a 2× solution (200 nM) of recombinant N-terminal MLH1 (residues 15-340) in assay buffer (25 mM HEPES, pH 7.5, 250 mM NaCl, 10 mM MgCl2, 0.01% Triton X-100, 5 mM dithiothreitol) was added to all wells in columns 1-23 and 20 μL assay buffer was added to all wells in column 24 using an E1-ClipTip pipette (ThermoFisher). Plates were centrifuged for 1 minute at 250×g and were incubated at room temperature for 30 minutes prior to the addition of 20 μL of 2× (10 nM) 5-((5-(4-((2-(2,4-dihydroxy-5-isopropylbenzoyl)isoindolin-5-yl)methyl)piperazin-1-yl)pentyl)carbamoyl)-2-(6-(dimethylamino)-3-(dimethyliminio)-3H-xanthen-9-yl)benzoate in assay buffer (prepared from a 1 mM DMSO stock) with an E1-ClipTip pipette (ThermoFisher). The final concentration of N-terminal MLH1 was 100 nM and the final concentration of the probe compound was 5 nM. Compound plates were centrifuged for 1 minute at 250×g for 1 minute and immediately read on a PheraStar FSX (fitted with 384-well aperture spoon and 590 675 675 FP optic module). The gain and focus were adjusted before each plate was read so that the polarisation of a no enzyme control (column 24) was equal to 35 mP. Data were normalised against the no inhibitor controls (column 23) and no enzyme controls (column 24).

[2] = molecular target: T2, recombinant N-terminal PMS2 (residues 1-365) (Homo sapiens, UniProt P54278); assay: Fluorescence Polarisation Assay for PMS2; format: binding; details: 10 nM N-terminal PMS2, 5 nM probe compound
T2 construct: recombinant N-terminal PMS2 (residues 1-365)
T2 sequence (P54278 1-365): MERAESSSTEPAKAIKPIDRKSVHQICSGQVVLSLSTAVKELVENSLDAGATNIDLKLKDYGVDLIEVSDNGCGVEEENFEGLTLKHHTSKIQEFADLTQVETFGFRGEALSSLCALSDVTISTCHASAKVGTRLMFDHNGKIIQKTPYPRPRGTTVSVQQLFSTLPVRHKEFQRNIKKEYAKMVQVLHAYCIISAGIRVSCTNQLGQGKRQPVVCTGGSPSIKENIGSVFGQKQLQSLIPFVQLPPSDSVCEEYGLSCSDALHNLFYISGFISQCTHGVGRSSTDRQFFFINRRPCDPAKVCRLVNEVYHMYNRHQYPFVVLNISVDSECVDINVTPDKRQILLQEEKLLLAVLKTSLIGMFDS
Description: Fluorescence Polarisation Assay for PMS2
For single point screening, test compounds were added to wells in columns 1-22 whilst DMSO was added to wells in columns 23 and 24 in order to normalise the plate. For potency determination, serial dilutions of test compounds were added to wells in columns 3-22 and DMSO volume was normalised across the plate.
20 μL assay buffer was added to all wells in columns 1 and 24 (column 24 only for single point screening) using a MultiDrop Combi (ThermoFisher). Plates were centrifuged for 1 minute at 250×g and were incubated at room temperature for 30 minutes prior to the addition of 20 μL of 2× (20 nM) of 5-((5-(4-((2-(2,4-dihydroxy-5-isopropylbenzoyl)isoindolin-5-yl)methyl)piperazin-1-yl)pentyl)carbamoyl)-2-(6-(dimethylamino)-3-(dimethyliminio)-3H-xanthen-9-yl)benzoate (referred to hereinafter as “probe compound”) in assay buffer (prepared from a 100 μM DMSO stock) with a MultiDrop Combi (ThermoFisher). The final concentration of N-terminal PMS2 was 10 nM and the final concentration of probe compound was 5 nM.
Compound plates were centrifuged for 1 minute at 250×g for 1 minute and were incubated at room temperature for 1 hour before being read on a PheraStar FSX (fitted with 384-well aperture spoon and 540 590 590 FP optic module). The gain and focus were adjusted before each plate was read so that the polarisation of a no enzyme control (column 24) was equal to 35 mP. Data were normalised against the no inhibitor controls (column 23) and no enzyme controls (column 24).

[3] = fluorescence polarisation probe displacement, read-out: PMS2 IC50

Row | Compound | pIC50 [1] | pIC50 [2, 3] | pIC50 ([2]; PMS2 IC50, fluorescence polarisation probe displacement)
1 | O=C(c1c(O)cc(O)cc1OCc1ccccc1)N1CCc2cccc(N[C@H]3CCOC3)c2C1 [Example 2, (S)-(2-(Benzyloxy)-4,6-dihydroxyphenyl)(8-((tetrahydrofuran-3-yl)amino)-3,4-dihydro-isoquinolin-2(1H)-yl)methanone] | > 6.00 | 5.00 to 6.00 | 
2 | O=C(c1c(O)cc(O)cc1OCc1ccccc1)N1Cc2ccc(CN3CCNCC3)cc2C1 [Example 3, (2-(Benzyloxy)-4,6-dihydroxyphenyl)(5-(piperazin-1-ylmethyl)isoindolin-2-yl)methanone] | > 6.00 | 5.00 to 6.00 | 
3 | CNCc1ccc2c(c1)CN(C(=O)c1c(O)cc(O)cc1OCc1ccccc1)C2 [Example 4, (2-(Benzyloxy)-4,6-dihydroxyphenyl)(5-((methylamino)methyl)isoindolin-2-yl)methanone] | > 6.00 | > 6.00 | 
4 | N#CC1CC(Oc2cccc3c2CN(C(=O)c2c(O)cc(O)cc2OCc2ccccc2)C3)C1 (stereo not shown) [Example 5, 3-((2-(2-(Benzyloxy)-4,6-dihydroxybenzoyl)isoindolin-4-yl)oxy)cyclobutane-1-carbonitrile] | 5.00 to 6.00 | 5.00 to 6.00 | 
5 | O=C(c1c(O)cc(O)cc1OCc1ccccc1)N1Cc2cccc(NC3CCOC3)c2C1 (stereo not shown) [Example 6, (2-(Benzyloxy)-4,6-dihydroxyphenyl)(4-((tetrahydrofuran-3-yl)amino)isoindolin-2-yl)methanone] | > 6.00 | 5.00 to 6.00 | 
6 | O=C(c1c(O)cc(O)cc1OCc1ccccc1)N1Cc2cccc(NC3COC3)c2C1 [Example 7, (2-(Benzyloxy)-4,6-dihydroxyphenyl)(4-(oxetan-3-ylamino)isoindolin-2-yl)methanone] | > 6.00 | 5.00 to 6.00 | 
7 | O=C(c1c(O)cc(O)cc1OCc1ccccc1)N1Cc2cccc(N3CCCC(O)C3)c2C1 (stereo not shown) [Example 8, (2-(Benzyloxy)-4,6-dihydroxyphenyl)(4-(3-hydroxypiperidin-1-yl)isoindolin-2-yl)methanone] | 5.00 to 6.00 | 5.00 to 6.00 | 
8 | CN1CCN(Cc2cccc3c2CN(C(=O)c2c(O)cc(O)cc2OCc2ccccc2)C3)CC1 [Example 9, (2-(Benzyloxy)-4,6-dihydroxyphenyl)(4-((4-methylpiperazin-1-yl)methyl)isoindolin-2-yl)methanone] | 5.00 to 6.00 | 5.00 to 6.00 | 
9 | O=C(c1c(O)cc(O)cc1OCc1ccccc1)N1Cc2cccc(CN3CCOCC3)c2C1 [Example 10, (2-(Benzyloxy)-4,6-dihydroxyphenyl)(4-(morpholinomethyl)isoindolin-2-yl)methanone] | 5.00 to 6.00 | 5.00 to 6.00 | 
10 | CN(C)Cc1ccc2c(c1)CN(C(=O)c1c(O)cc(O)cc1OCc1ccccc1)C2 [Example 11, (2-(Benzyloxy)-4,6-dihydroxyphenyl)(5-((dimethylamino)methyl)isoindolin-2-yl)methanone] | 5.00 to 6.00 | 5.00 to 6.00 | 
11 | O=C(c1c(O)cc(O)cc1OCc1ccccc1)N1Cc2ccc(CN3CCOCC3)cc2C1 [Example 12, (2-(Benzyloxy)-4,6-dihydroxyphenyl)(5-(morpholinomethyl)isoindolin-2-yl)methanone] | > 6.00 | > 6.00 | 
12 | O=C(c1c(O)cc(O)cc1OCc1ccccc1)N1Cc2ccccc2C1CO (stereo not shown) [Example 13, (2-(Benzyloxy)-4,6-dihydroxyphenyl)(1-(hydroxymethyl)isoindolin-2-yl)methanone] | > 6.00 | 5.00 to 6.00 | 
13 | O=C(c1c(O)cc(O)cc1OCc1ccccc1)N1Cc2cccc(NC3CCCOC3)c2C1 (stereo not shown) [Example 14, (2-(Benzyloxy)-4,6-dihydroxyphenyl)(4-((tetrahydro-2H-pyran-3-yl)amino)isoindolin-2-yl)methanone] | > 6.00 | 5.00 to 6.00 | 
14 | CCOc1cc(O)cc(O)c1C(=O)N1Cc2cccc(NC3CCOC3)c2C1 (stereo not shown) [Example 17, (2-Ethoxy-4,6-dihydroxyphenyl)(4-((tetrahydrofuran-3-yl)amino)isoindolin-2-yl)methanone] | > 6.00 |  | < 5.00

Second part, led by results:

Row | pIC50 [1] | pIC50 [2, 3] | Compound | pIC50 ([2]; PMS2 IC50, fluorescence polarisation probe displacement)
15 | > 6.00 | 5.00 to 6.00 | O=C(c1c(O)cc(O)cc1OCc1ccccc1)N1Cc2cccc(NC3CCOCC3)c2C1 [Example 15, (2-(Benzyloxy)-4,6-dihydroxyphenyl)(4-((tetrahydro-2H-pyran-4-yl)amino)isoindolin-2-yl)methanone] | 
16 | 5.00 to 6.00 | < 5.00 | COc1cc(O)cc(O)c1C(=O)N1Cc2cccc(NC3CCOC3)c2C1 (stereo not shown) [Example 16, (2,4-Dihydroxy-6-methoxyphenyl)(4-((tetrahydrofuran-3-yl)amino)isoindolin-2-yl)methanone] | 
17 | > 6.00 | 5.00 to 6.00 | CN1CC(Nc2cccc3c2CN(C(=O)c2c(O)cc(O)cc2OCc2ccccc2)C3)CC1=O (stereo not shown) [Example 18, 4-((2-(2-(Benzyloxy)-4,6-dihydroxybenzoyl)isoindolin-4-yl)amino)-1-methylpyrrolidin-2-one] | 
18 | > 6.00 | > 6.00 | O=C(c1c(O)cc(O)cc1OCc1ccccc1)N1Cc2cccc(Nc3cncnc3)c2C1 [Example 19, (2-(Benzyloxy)-4,6-dihydroxyphenyl)(4-(pyrimidin-5-ylamino)isoindolin-2-yl)methanone] | 
19 | > 6.00 | 5.00 to 6.00 | O=C(c1c(O)cc(O)cc1OCc1ccccc1)N1Cc2cccc(NCc3cocn3)c2C1 [Example 20, (2-(Benzyloxy)-4,6-dihydroxyphenyl)(4-((oxazol-4-ylmethyl)amino)isoindolin-2-yl)methanone] | 
20 | 5.00 to 6.00 | 5.00 to 6.00 | Cn1cc(Nc2cccc3c2CN(C(=O)c2c(O)cc(O)cc2OCc2ccccc2)C3)cn1 [Example 21, (2-(Benzyloxy)-4,6-dihydroxyphenyl)(4-((1-methyl-1H-pyrazol-4-yl)amino)isoindolin-2-yl)methanone] | 
21 | > 6.00 | > 6.00 | O=C(c1c(O)cc(O)cc1OCc1ccccc1)N1Cc2cccc(N[C@H]3CCOC3)c2C1 [Example 22, (S)-(2-(Benzyloxy)-4,6-dihydroxyphenyl)(4-((tetrahydrofuran-3-yl)amino)isoindolin-2-yl)methanone] | 
22 | > 6.00 | 5.00 to 6.00 | O=C(c1c(O)cc(O)cc1OCc1ccccc1)N1Cc2cccc(N[C@@H]3CCOC3)c2C1 [Example 23, (R)-(2-(Benzyloxy)-4,6-dihydroxyphenyl)(4-((tetrahydrofuran-3-yl)amino)isoindolin-2-yl)methanone] | 
23 | 5.00 to 6.00 | 5.00 to 6.00 | Cc1c[nH]c(=O)cc1Nc1cccc2c1CN(C(=O)c1c(O)cc(O)cc1OCc1ccccc1)C2 [Example 24, 4-((2-(2-(benzyloxy)-4,6-dihydroxybenzoyl)isoindolin-4-yl)amino)-5-methylpyridin-2(1H)-one] | 
